The values below come from US7884097B2, “Methods and compositions comprising diamines as new anti-tubercular therapeutics” (Sequella, Inc., priority 2003, dated 2011).

One assay has as its system H37Rv strain of Mtb. The assay is described as follows: microbe, parasite or virus in culture. Type of assay: cell-based, M. tuberculosis.
The next assay deals with Vero monkey kidney cells. As to the kind of experiment: In vitro toxicity, MTS assay in Vero cells. The assay is classed as cell-based. Conditions: for SI (selectivity index, ratio of IC50:MIC): IC50 Vero cells : MIC. The protocol:
Cytotoxicity The Vero cell line (ATCC CCL-8 1) was seeded overnight at 5×10^4 cells per well in 96-well plates at 37° C. and 5% CO2 in EMEM with essential amino acids and glutamine (BioFluids) supplemented with 10% heat-inactivated fetal bovine serum (FBS). Cells were exposed to dilutions of experimental and control drugs in triplicate for 72 hr, with each compound at a range of concentrations from 15-200 μM. Chlorpromazine (Sigma) was run as a control at the same concentrations. CellTiter 96 AQueous Assay (Promega) was used for determination of Vero cell viability. Briefly, a solution of MTS salt (3-(4,5-dimethylthiazol-2-yl)-5-(3-carboxymethoxyphenyl)-2-(4-sulfophenyl)-2H-tetrazolium) and phenazine methosulfate was added to each well and plates were incubated for 2 hr at 37° C. and 5% CO2. Absorbance of each well was read using BioRad microplate reader at 490 nm. Viability (absorbance) of cells in drug-exposed wells was compared to those in drug-free control wells, and a curve relating cell viability to drug concentration was created.
For orientation: Tetrazolium dyes change colour on reduction, which living cells bring about.

The subject of a further assay is M. tuberculosis. Conditions: background statement; cited from earlier work.
For assay [1], the system named is M. tuberculosis H37Rv. The assay is described as follows: Rapid (3 wk) murine model of TB, body weight loss. The assay is classed as in vivo, mice. Conditions: for prevention of body weight loss and mortality: mice iv 10^6 CFU, test drugs 10 mg/kg daily by gavage for 10 days, INH 25 or 2.5 mg/kg; for loss of initial body weight: by day 21 following challenge, 10 mg/kg.

The next assay relates to HepG2 cell line. The assay is described as follows: In vitro cytotoxicity, MTS assay in HepG2 cell line. Type of assay: cell-based. Conditions: Homo sapiens, HepG2 cells.
Assay [2] concerns M. tuberculosis in TB-infected mouse macrophage RAW 264.7 cells. As to the kind of experiment: Efficacy in TB-infected macrophages, bioluminescence reporter assay. The assay is classed as cell-based. Conditions: for efficacy in macrophages compared to standard drugs (words): RAW 264.7, treated 6 days, 4 timepoints, five concentrations; for intracellular activity compared to EMB and INH: RAW 264.7, 7 days, day 7 readout.

The subject of assay [3] is M. tuberculosis H37Rv. The assay is described as follows: Murine model of chronic TB, CFU in lung and spleen. The assay is classed as in vivo, mice. Conditions: for activity against M. tuberculosis in vivo: mice, two models (rapid and chronic).
In assay [4] the test system is recombinant mycobacteria containing a promoter fusion of luciferase to Rv0341. Type of assay: cell-based, M. tuberculosis. Conditions: active = exceeds untreated control by 1.5 times.
Where [5] appears, read: list of preferred compounds (FIG. 20).
Setting [6] is: cytotoxicity, list of preferred compounds (FIG. 20), read-out: IC50.
Where [7] appears, read: Mycobacterium tuberculosis, H37RV, list of preferred compounds (FIG. 20), read-out: MIC.
[8] abbreviates: Primates, Vero, cytotoxicity, list of preferred compounds (FIG. 20), read-out: IC50.
The mark [9] stands for this setting: Mycobacterium tuberculosis, H37RV, Examples 4 and 5 and screening summary, read-out: MIC.
Setting [10] is: Mycobacterium tuberculosis, H37RV, read-out: MIC.

Values after ≈ are worked out from the molar mass of the structure shown. “Also recorded” adds a separate entry of the source. Read-outs that look alike come from different tables or passages of the source.

The term IC50 denotes the point on the concentration scale where inhibition reaches its midpoint.

`CC(C)=CCC/C(C)=C/CNCCCN1CCCCC1C` (stereo not drawn) [#711, 1-(N-Geranyl)-3-Aminopropylpipecoline] registered an MIC in the assay with H37Rv strain of Mtb (setting [5]) of 6.25 µM (≈ 1.83 µg/mL).

The compound `CC1CCCCN1CCCNCc1ccc(C(F)(F)F)cc1` (stereo not drawn) [#712, 1-(N-(4-Trifluorobenzyl)-3-Aminopropyl)pipecoline] came in with an MIC against H37Rv strain of Mtb (setting [5]) of 12.5 µM (≈ 3.93 µg/mL).

In the assay with H37Rv strain of Mtb, `Fc1ccccc1N1CCN(C2CCC3CCCCC3C2)CC1` (stereo not drawn) [#765, N-(2-Fluorophenyl)-N′-(2-decalone)piperazine] yielded an MIC of 6.25 µM (≈ 1.98 µg/mL). Moreover, the IC50 with Vero monkey kidney cells (setting [6]) turned out to be 70 µM.

In the case of `CCOc1ccccc1CN1CCN(c2ccccc2F)CC1` [#766, N-(2-Fluorophenyl)-N′-(2-ethoxybenzyl)piperazine], the MIC with H37Rv strain of Mtb (setting [7]) was 12.5 µM (≈ 3.93 µg/mL). Moreover, the “SI (selectivity index, ratio of IC50:MIC)” value with Vero monkey kidney cells was 6.08. The compound further showed an IC50 in the assay with Vero monkey kidney cells (Primates, Vero) of 76 µM.

For the compound `c1ccc(CN2CCN(C3C4CC5CC(C4)CC3C5)CC2)cc1` (stereo not drawn) [#785, N-Benzyl-N′-2-Adamantylpiperazine], in the assay on H37Rv strain of Mtb (setting [7]), the MIC amounted to 12.5 µM (≈ 3.88 µg/mL). Besides, the “SI (selectivity index, ratio of IC50:MIC)” value in the assay on Vero monkey kidney cells stood at 7.76. The half-maximal inhibitory concentration (IC50) in the assay with Vero monkey kidney cells (setting [8]) came to 97 µM.

For the compound `c1ccc(CN2CCN(C3CCC4CCCCC4C3)CC2)cc1` (stereo not drawn) [#787, N-Benzyl-N′-2-Decalonepiperazine], the MIC with H37Rv strain of Mtb (setting [5]) came to 12.5 µM (≈ 3.91 µg/mL). In the assay on Vero monkey kidney cells (setting [6]), the 50% inhibitory concentration (IC50) came out at 70 µM.

For `CC[C@@H](CO)NCCN[C@@H](CC)CO` [EMB, Ethambutol, reference compound], in the assay on H37Rv strain of Mtb (setting [9]), the MIC came out at 12.5 µM (≈ 2.55 µg/mL). Besides, the “Minimum Inhibition Concentration (MIC)” value with M. tuberculosis is on record as “about 5 μg/ml”.

Turning to `NNC(=O)c1ccncc1` [INH, Isoniazid, reference compound], the MIC in the assay with H37Rv strain of Mtb (setting [9]) turned out to be 1 µM (≈ 0.137 µg/mL). Further, in the assay with M. tuberculosis H37Rv [1], the “prevention of body weight loss and mortality” value is reported as “did not show any signs of body loss”.

For the compound `C1CN(C2C3CC4CC(C3)CC2C4)CCN(C2C3CC4CC(C3)CC2C4)C1` (stereo not drawn) [SQ775, N,N′-Bis(2-Adamantane)homopiperazine], the values for the MIC with H37Rv strain of Mtb (setting [9]), in the assay on H37Rv strain of Mtb (setting [7]) and with H37Rv strain of Mtb (setting [10]) were 6.25 µM (≈ 2.3 µg/mL), 7.8 µM (≈ 2.88 µg/mL) and 7.8 µM (≈ 2.88 µg/mL), respectively. Further, the half-inhibitory concentration (IC50) in the assay on HepG2 cell line and in the assay with Vero monkey kidney cells (setting [8]) was 132 µM each time. Also, the “loss of initial body weight” value in the assay with M. tuberculosis H37Rv [1] came to 4%. Moreover, the “prevention of body weight loss and mortality” value in the assay on M. tuberculosis H37Rv [1] was “prevented body weight loss and delayed mortality”. Also, the “mortality in the group” value in the assay with M. tuberculosis H37Rv [1] (one week after chemotherapy withdrawn, 6 mice) came to 50%. Moreover, the “loss of initial body weight of mice that remained alive” value in the assay on M. tuberculosis H37Rv [1] (ten days later, after chemotherapy withdrawal, 3 mice) was “about 20%”. The “efficacy in macrophages compared to standard drugs (words)” value in assay [2] (listed as 775) is listed as “as effective as isoniazid”; in assay [2] (listed as #775) it was “equal or superior to ethambutol”. Moreover, the “inhibition of bacterial growth” value in assay [2] (intracellular, RAW 264.7, day 7, concentration 2×MIC) was 99%. Besides, in the assay on M. tuberculosis H37Rv [3], the “activity against M. tuberculosis in vivo” value is reported as “promising activity against M.tb in vivo; also recorded: efficacious”. In the assay with Vero monkey kidney cells, the “SI (selectivity index, ratio of IC50:MIC)” value is recorded as 16.92.

Turning to `C1CCCC(N2CCCN(C3CCCCCCC3)CC2)CCC1` [SQ777], in the assay on H37Rv strain of Mtb (setting [10]), the MIC was found to be 7.8 µM (≈ 2.5 µg/mL). The compound further yielded an IC50 with HepG2 cell line of 74 µM.

For `C1CCC2CC(N3CCCN(C4CCC5CCCCC5C4)CC3)CCC2C1` (stereo not drawn) [SQ778, N,N′-Bis(2-Decalone)homopiperazine], the MIC in the assay with H37Rv strain of Mtb (setting [7]) and in the assay on H37Rv strain of Mtb (setting [10]) was 7.8 µM (≈ 2.91 µg/mL) each time. Moreover, the IC50 in the assay with HepG2 cell line and with Vero monkey kidney cells (setting [8]) was 54 µM throughout. For the same compound, the “SI (selectivity index, ratio of IC50:MIC)” value with Vero monkey kidney cells came out at 6.92.

With `CC1(C)C2CC=C(CN3CCCN(CC4=CCC5CC4C5(C)C)CC3)C1C2` [SQ779], the MIC in the assay on H37Rv strain of Mtb (setting [7]) and with H37Rv strain of Mtb (setting [10]) was 7.8 µM (≈ 2.88 µg/mL) each time. For the same compound, the IC50 with HepG2 cell line and in the assay on Vero monkey kidney cells (setting [8]) was 110 µM throughout. For the same compound, the “SI (selectivity index, ratio of IC50:MIC)” value in the assay on Vero monkey kidney cells amounted to 14.1.

As for `CCOc1ccccc1CN1CCCN(Cc2ccccc2OCC)CC1` [SQ780, N,N′-Bis(2-Ethoxybenzyl)homopiperazine], the MIC in the assay on H37Rv strain of Mtb (setting [9]) stood at 1.56 µM (≈ 0.575 µg/mL); in the assay on H37Rv strain of Mtb (setting [7]) it was 1.56 µM (≈ 0.575 µg/mL); in the assay on H37Rv strain of Mtb (setting [10]), 3.9 µM (≈ 1.44 µg/mL). Further, the IC50 in the assay on HepG2 cell line and with Vero monkey kidney cells (setting [8]) was 71 µM in each case. The “loss of initial body weight” value in the assay with M. tuberculosis H37Rv [1] is reported as 13%. In the assay on M. tuberculosis H37Rv [1], the “prevention of body weight loss and mortality” value was “low efficacy; also recorded: not active”. Besides, the “intracellular activity compared to EMB and INH” value in assay [2] is recorded as “equivalent to or better than EMB, but less active than INH”. In assay [2], the “efficacy in macrophages compared to standard drugs (words)” value is recorded as “equal or superior to ethambutol”. Besides, the “reduction of CFU in spleen” value in the assay on M. tuberculosis H37Rv [3] (10 mg/kg daily by gavage, 28 days, museum strain of H37Rv) amounted to 1 log. For the same compound, the “activity against M. tuberculosis in vivo” value in the assay on M. tuberculosis H37Rv [3] is “efficacious”. Further, the “SI (selectivity index, ratio of IC50:MIC)” value in the assay on Vero monkey kidney cells was determined as 18.21.

`C=C(C)[C@@H]1CC=C(CN2CCCN(CC3=CC[C@@H](C(=C)C)CC3)CC2)CC1` [SQ781]: in the assay on H37Rv strain of Mtb (Examples 4 and 5 and screening summary), the MIC entry was “high MIC”.

For the compound `COc1ccccc1CN1CCCN(Cc2ccccc2OC)CC1` [SQ782], in the assay on H37Rv strain of Mtb (setting [9]), the MIC came out at 6.25 µM (≈ 2.13 µg/mL). In addition, the MIC with H37Rv strain of Mtb (setting [10]) came to 7.8 µM (≈ 2.66 µg/mL). Besides, the concentration for half-maximal inhibition (IC50) with HepG2 cell line came out at 105 µM. Also, in assay [2], the “intracellular activity compared to EMB and INH” value is “equivalent to or better than EMB, but less active than INH”; the “efficacy in macrophages compared to standard drugs (words)” value is reported as “equal or superior to ethambutol”.

On to `c1ccc(COc2ccc(CN3CCN(Cc4ccccc4)CC3)cc2)cc1` [SQ786, N -benzyl-N′-(4-benzyloxy)benzylpiperazine], for which the values for the MIC in the assay on H37Rv strain of Mtb (setting [9]) and in the assay on H37Rv strain of Mtb (setting [10]) were 3.9 µM (≈ 1.45 µg/mL) and 3.13 µM (≈ 1.17 µg/mL), respectively. This compound also showed an IC50 in the assay with HepG2 cell line of 54 µM. The “activity in the Luc assay” value in assay [4] is “not active”. In addition, in the assay with M. tuberculosis H37Rv [1], the “prevention of body weight loss and mortality” value was “prevented body weight loss and delayed mortality”. Besides, the “activity against M. tuberculosis in vivo” value in the assay with M. tuberculosis H37Rv [3] is “promising activity against M.tb in vivo; also recorded: efficacious”.
